Laboratory results as given in ChEMBL document CHEMBL2331232, “Α-mangostin and gambogic acid as potential inhibitors of the p53-MDM2 interaction revealed by a yeast approach” (J Nat Prod, 2013).
The source made the active and inactive calls. The rule behind the calls is not given here.

Columns and labels:
[1] = target: Cellular tumor antigen p53 (Homo sapiens) (UniProt P04637); test: Inhibition of human p53 expressed in Saccharomyces cerevisiae CG379 assessed as effect on cell growth at 1 to 100 uM after 42 hrs
[2] = target: E3 ubiquitin-protein ligase Mdm2 (Homo sapiens) (UniProt Q00987); test: Inhibition of human MDM2 expressed in Saccharomyces cerevisiae CG379 assessed as effect on cell cycle arrest at 1 to 100 uM after 42 hrs
[3] = system: Cellular tumor antigen p53 (Homo sapiens), P04637 [R280K]; test: Inhibition of human p53 R280K mutant expressed in Saccharomyces cerevisiae CG379 assessed as effect on cell growth at 10 uM after 31 hrs
[4] = target: Cellular tumor antigen p53 (Homo sapiens) (UniProt P04637); test: Inhibition of human p53 expressed in Saccharomyces cerevisiae CG379 assessed as effect on cell cycle arrest at 1 to 100 uM after 42 hrs

Chain of Cellular tumor antigen p53 (Homo sapiens) (P04637 whole entry, looked up): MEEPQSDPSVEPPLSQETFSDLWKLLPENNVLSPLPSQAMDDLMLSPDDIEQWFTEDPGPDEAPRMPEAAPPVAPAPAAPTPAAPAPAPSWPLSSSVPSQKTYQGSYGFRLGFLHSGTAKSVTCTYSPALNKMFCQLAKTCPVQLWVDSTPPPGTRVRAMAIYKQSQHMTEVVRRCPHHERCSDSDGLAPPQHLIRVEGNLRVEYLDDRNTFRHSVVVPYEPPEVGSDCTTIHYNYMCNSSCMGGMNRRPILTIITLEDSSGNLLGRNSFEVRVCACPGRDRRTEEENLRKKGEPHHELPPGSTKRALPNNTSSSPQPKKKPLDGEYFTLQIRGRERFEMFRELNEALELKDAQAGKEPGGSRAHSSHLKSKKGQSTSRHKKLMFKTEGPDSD
Chain of E3 ubiquitin-protein ligase Mdm2 (Homo sapiens) (Q00987 whole entry, looked up): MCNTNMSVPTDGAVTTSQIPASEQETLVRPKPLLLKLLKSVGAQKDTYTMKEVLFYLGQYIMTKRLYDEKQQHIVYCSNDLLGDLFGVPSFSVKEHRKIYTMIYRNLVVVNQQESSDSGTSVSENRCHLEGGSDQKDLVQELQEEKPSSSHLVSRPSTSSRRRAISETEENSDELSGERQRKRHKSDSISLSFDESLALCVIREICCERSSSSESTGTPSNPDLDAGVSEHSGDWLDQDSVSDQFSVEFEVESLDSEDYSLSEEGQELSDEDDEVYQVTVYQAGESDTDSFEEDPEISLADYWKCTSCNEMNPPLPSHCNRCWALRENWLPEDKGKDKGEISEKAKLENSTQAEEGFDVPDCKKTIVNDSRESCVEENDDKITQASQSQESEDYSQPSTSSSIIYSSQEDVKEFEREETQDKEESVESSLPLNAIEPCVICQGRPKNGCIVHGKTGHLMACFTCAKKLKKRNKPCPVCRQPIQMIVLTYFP

SMILES	inhibition [1]	inhibition [2]	inhibition [3]	inhibition [4]
COc1c(O)cc2oc3cc(O)c(CC=C(C)C)c(O)c3c(=O)c2c1CC=C(C)C	inactive	inactive	inactive	inactive
CC(C)=CCC[C@]1(C)C=Cc2c(O)c3c(c(CC=C(C)C)c2O1)O[C@]12C(=C[C@@H]4C[C@H]1C(C)(C)O[C@@]2(C/C=C(/C)C(=O)O)C4=O)C3=O	inactive	Active	inactive	inactive
